According to patent publication US20220370416A1, “COMPOUNDS AND METHODS FOR TARGETED DEGRADATION OF KRAS” (Arvinas Operations, Inc., priority 2020, published 2022):

How the values were obtained:
HiBit-KRAS^G12C [1] = target: T1, HiBit-KRAS^G12C (Homo sapiens, UniProt P01116, G12C); experiment: HiBit degradation assay in MiaPaCa-2 HiBit-KRas^G12C cells; assay type: cell-based; settings: 24 hours; for Dmax: maximum degradation; for DC50: read-out: KRas^G12C-HiBiT (MiaPaCa; 0.5% DMSO) IC50
Outline: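 DC50 and Dmax come from 4-parameter fits of DMSO-normalized HiBit luminescence after 24 hours' exposure at 37° C to 10 μM–20 nM compound in 0.1% or 0.5% DMSO. Cells: MiaPaCa-2 carrying one endogenously HiBit-tagged KRAS^G12C allele; concentrations causing ≥50% […] viability loss (alamar blue) excluded.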

HiBit-KRAS^G12C [2] = target: T1, HiBit-KRAS^G12C; experiment: HiBit degradation assay in SW1573 HiBit-KRas^G12C cells; assay type: cell-based; parameters: expressed in transfected cells; host or cells: SW1573 (clone E6), modified pcDNA3.1 vector, TK promoter; settings: 24 hours; for Dmax: SW1573, SW1573 HiBit-KRas^G12C; for DC50: SW1573 HiBit-KRas^G12C
Outline: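 HiBit-KRAS G12C degradation was measured after a 24 h compound exposure (titrated 10 μM–20 nM) in engineered SW1573 cells. Lytic HiBit luminescence, expressed relative to DMSO controls, yielded DC50 and Dmax from 4-parameter fits. Concentrations causing ≥50% loss in alamar blue viability were omitted as cytotoxic.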

[3] = MIA PaCa-2, MiaPaCa-2 HiBit-KRas^G12C cells, 0.5% DMSO, read-out: KRas^G12C-HiBiT (MiaPaCa; 0.5% DMSO) DMax
[4] = MiaPaCa-2 HiBit-KRas^G12C cells, 0.5% DMSO
[5] = 0.5% DMSO, read-out: KRas^G12C-HiBiT (SW1573; 0.5% DMSO) Dmax**
[6] = read-out: KRas^G12C-HiBiT (SW1573; 0.5% DMSO) IC50***, 0.5% DMSO
[7] = 0.1% DMSO, read-out: KRas^G12C-HIBit (SW1573; 0.1% DMSO) DC50*

T1 sequence (P01116 1-186 isoform P01116-2 G12C limits assumed): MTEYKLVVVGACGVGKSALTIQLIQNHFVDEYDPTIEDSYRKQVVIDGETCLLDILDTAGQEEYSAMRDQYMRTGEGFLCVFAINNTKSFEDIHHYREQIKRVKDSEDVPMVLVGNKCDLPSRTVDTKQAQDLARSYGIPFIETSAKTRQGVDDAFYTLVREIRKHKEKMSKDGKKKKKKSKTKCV

SMILES	Dmax (HiBit-KRAS^G12C [1]; [3]) [%]	DC50 (HiBit-KRAS^G12C [1]; [4]) [nM]	Dmax (HiBit-KRAS^G12C [2]; [5]) [%]	DC50 (HiBit-KRAS^G12C [2]; [6]) [nM]	Dmax (HiBit-KRAS^G12C [1]; MIA PaCa-2, read-out: KRas^G12C-HiBiT (MiaPaCa; 0.1% DMSO) DMax, MiaPaCa-2 HiBit-KRas^G12C cells, 0.1% DMSO) [%]	DC50 (HiBit-KRAS^G12C [2]; [7]) [nM]	Dmax (HiBit-KRAS^G12C [1]; MIA PaCa-2, MiaPaCa-2 HiBit-KRas^G12C cells, 0.1% DMSO, read-out: KRas^G12C-HiBiT (MiaPaCa; 0.1% DMSO) DMax) [%]	Dmax (HiBit-KRAS^G12C [2]; 0.1% DMSO, read-out: KRas^G12C-HiBit (SW1573; 0.1% DMSO) Dmax**) [%]
C=CC(=O)N1CCN(c2nc(OC[C@@H]3CCCN3CCCCOCC(=O)N[C@H](C(=O)N3C[C@H](O)C[C@H]3C(=O)N[C@@H](C)c3ccc(-c4scnc4C)cc3)C(C)(C)C)nc3c(F)c(-c4cc(O)cc5ccccc45)c(Cl)cc23)C[C@@H]1CC#N [Compound 100, (2S,4R)-1-[(2S)-2-(2-{4-[(2S)-2-[({6-chloro-4-[(3S)-3-(cyanomethyl)-4-(prop-2-enoyl)piperazin-1-yl]-8-fluoro-7-(3-hydroxynaphthalen-1-yl)quinazolin-2-yl}oxy)methyl]pyrrolidin-1-yl]butoxy}acetamido)-3,3-dimethylbutanoyl]-4-hydroxy-N-[(1S)-1-[4-(4-methyl-1,3-thiazol-5-yl)phenyl]ethyl]pyrrolidine-2-carboxamide]	< 35	> 1000	< 35	100 to 1000	–	–	–	–
C=CC(=O)N1CCN(c2nc(OCCN3CCC(OCCOCC(=O)N[C@H](C(=O)N4C[C@@H](O)C[C@H]4C(=O)N[C@@H](C)c4ccc(-c5scnc5C)cc4)C(C)(C)C)CC3)nc3c(F)c(-c4cc(O)cc5ccccc45)c(Cl)cc23)C[C@@H]1CC#N [Compound 7, (2S,4S)-1-[(2S)-2-{2-[2-({1-[2-({6-chloro-4-[(3S)-3-(cyanomethyl)-4-(prop-2-enoyl)piperazin-1-yl]-8-fluoro-7-(3-hydroxynaphthalen-1-yl)quinazolin-2-yl}oxy)ethyl]piperidin-4-yl}oxy)ethoxy]acetamido}-3,3-dimethylbutanoyl]-4-hydroxy-N-[(1S)-1-[4-(4-methyl-1,3-thiazol-5-yl)phenyl]ethyl]pyrrolidine-2-carboxamide]	–	–	–	–	35 to 70	> 1000	–	–
C=CC(=O)N1CCN(c2nc(OCCN3CCC(COc4cc([C@@H](C(=O)N5C[C@H](O)C[C@H]5C(=O)N[C@@H](C)c5ccc(C#N)cc5)C(C)C)on4)CC3)nc3c(F)c(-c4cc(O)cc5ccccc45)c(Cl)cc23)C[C@@H]1CC#N [Compound 161, (2S,4R)-1-[(2S)-2-[3-({1-[2-({6-chloro-4-[(3S)-3-(cyanomethyl)-4-(prop-2-enoyl)piperazin-1-yl]-8-fluoro-7-(3-hydroxynaphthalen-1-yl)quinazolin-2-yl}oxy)ethyl]piperidin-4-yl}methoxy)-1,2-oxazol-5-yl]-3-methylbutanoyl]-N-[(1S)-1-(4-cyanophenyl)ethyl]-4-hydroxypyrrolidine-2-carboxamide]	35 to 70	100 to 1000	35 to 70	< 100	–	–	–	–
C=CC(=O)N1CCN(c2nc(OCCN3CCC(F)(COc4cc([C@@H](C(=O)N5C[C@H](O)C[C@H]5C(=O)N[C@@H](C)c5ccc(-c6scnc6C)cc5)C(C)C)on4)CC3)nc3c(F)c(-c4cc(O)cc5ccccc45)c(Cl)cc23)C[C@@H]1CC#N [Compound 134, (2S,4R)-1-[(2S)-2-[3-({1-[2-({6-chloro-4-[(3S)-3-(cyanomethyl)-4-(prop-2-enoyl)piperazin-1-yl]-8-fluoro-7-(3-hydroxynaphthalen-1-yl)quinazolin-2-yl}oxy)ethyl]-4-fluoropiperidin-4-yl}methoxy)-1,2-oxazol-5-yl]-3-methylbutanoyl]-4-hydroxy-N-[(1S)-1-[4-(4-methyl-1,3-thiazol-5-yl)phenyl]ethyl]pyrrolidine-2-carboxamide]	–	> 1000	–	> 1000	–	–	–	–
C=C(F)C(=O)N1CCN(c2nc(OCCN3CCC(F)(COc4cc([C@@H](C(=O)N5C[C@H](O)C[C@H]5C(=O)N[C@@H](C)c5ccc(-c6ccnn6C)cc5)C(C)C)on4)CC3)nc3c(F)c(-c4cc(O)cc5ccccc45)c(Cl)cc23)C[C@@H]1CC#N (atropisomer, axis not shown) [Compound 118, (2S,4R)-1-[(2S)-2-[3-({1-[2-({6-chloro-4-[(3S)-3-(cyanomethyl)-4-(2-fluoroprop-2-enoyl)piperazin-1-yl]-8-fluoro-7-(3-hydroxynaphthalen-1-yl)quinazolin-2-yl}oxy)ethyl]-4-fluoropiperidin-4-yl}methoxy)-1,2-oxazol-5-yl]-3-methylbutanoyl]-4-hydroxy-N-[(1S)-1-[4-(1-methyl-1H-pyrazol-5-yl)phenyl]ethyl]pyrrolidine-2-carboxamide]	–	> 1000	–	100 to 1000	–	–	–	–
C=CC(=O)N1CCN(c2nc(OCCN3CCC(COCC(=O)N[C@H](C(=O)N4C[C@H](O)C[C@H]4C(=O)N[C@@H](C)c4ccc(-c5scnc5C)cc4)C(C)(C)C)CC3)nc3c(F)c(-c4nc(NC)cc(C)c4C(F)(F)F)c(Cl)cc23)C[C@@H]1CC#N [Compound 98, (2S,4R)-1-[(2S)-2-[2-({1-[2-({6-chloro-4-[(3S)-3-(cyanomethyl)-4-(prop-2-enoyl)piperazin-1-yl]-8-fluoro-7-[4-methyl-6-(methylamino)-3-(trifluoromethyl)pyridin-2-yl]quinazolin-2-yl}oxy)ethyl]piperidin-4-yl}methoxy)acetamido]-3,3-dimethylbutanoyl]-4-hydroxy-N-[(1S)-1-[4-(4-methyl-1,3-thiazol-5-yl)phenyl]ethyl]pyrrolidine-2-carboxamide]	> 70	100 to 1000	> 70	100 to 1000	–	–	–	–
C=CC(=O)N1CCN(c2nc(OCCN3CCC(COCC(=O)N[C@H](C(=O)N4C[C@@H](O)C[C@H]4C(=O)N[C@@H](C)c4ccc(-c5scnc5C)cc4)C(C)(C)C)CC3)nc3c(F)c(-c4cccc5cccc(C)c45)c(Cl)cc23)C[C@@H]1CC#N [Compound 97]	–	> 1000	> 70	> 1000	–	–	–	–
C=CC(=O)N1CCN(c2nc(OCCN3CCC4(CC3)CN(c3cc([C@@H](C(=O)N5C[C@H](O)C[C@H]5C(=O)N[C@@H](C)c5ccc(-c6scnc6C)cc5)C(C)C)on3)C4)nc3c(F)c(-c4cc(O)cc5ccccc45)c(Cl)cc23)C[C@@H]1CC#N (atropisomer, axis not shown) [Compound 108, (2S,4R)-1-[(2S)-2-(3-{7-[2-({6-chloro-4-[(3S)-3-(cyanomethyl)-4-(prop-2-enoyl)piperazin-1-yl]-8-fluoro-7-(3-hydroxynaphthalen-1-yl)quinazolin-2-yl}oxy)ethyl]-2,7-diazaspiro[3.5]nonan-2-yl}-1,2-oxazol-5-yl)-3-methylbutanoyl]-4-hydroxy-N-[(1S)-1-[4-(4-methyl-1,3-thiazol-5-yl)phenyl]ethyl]pyrrolidine-2-carboxamide]	< 35	100 to 1000	–	> 1000	–	–	–	–
C=CC(=O)N1CCN(c2nc(O[C@H](C)CN3CCC(OCCOCC(=O)N[C@H](C(=O)N4C[C@H](O)C[C@H]4C(=O)N[C@@H](C)c4ccc(-c5scnc5C)cc4)C(C)(C)C)CC3)nc3c2CCN(c2cc(O)cc4ccccc24)C3)C[C@@H]1CC#N [Compound 31, (2S,4R)-1-[(2S)-2-{2-[2-({1-[(2R)-2-({4-[(3S)-3-(cyanomethyl)-4-(prop-2-enoyl)piperazin-1-yl]-7-(3-hydroxynaphthalen-1-yl)-5H,6H,7H,8H-pyrido[3,4-d]pyrimidin-2-yl}oxy)propyl]piperidin-4-yl}oxy)ethoxy]acetamido}-3,3-dimethylbutanoyl]-4-hydroxy-N-[(1S)-1-[4-(4-methyl-1,3-thiazol-5-yl)phenyl]ethyl]pyrrolidine-2-carboxamide]	< 35	–	35 to 70	–	–	> 1000	< 35	35 to 70
C=C(F)C(=O)N1CCN(c2nc(OCCN3CCC4(CC3)CN(c3cc([C@@H](C(=O)N5C[C@H](O)C[C@H]5C(=O)N[C@@H](C)c5ccc(-c6ccnn6C)cc5)C(C)C)on3)C4)nc3c(F)c(-c4cc(O)cc5ccccc45)c(Cl)cc23)C[C@@H]1CC#N (atropisomer, axis not shown) [Compound 103, (2S,4R)-1-[(2S)-2-(3-{7-[2-({6-chloro-4-[(3S)-3-(cyanomethyl)-4-(2-fluoroprop-2-enoyl)piperazin-1-yl]-8-fluoro-7-(3-hydroxynaphthalen-1-yl)quinazolin-2-yl}oxy)ethyl]-2,7-diazaspiro[3.5]nonan-2-yl}-1,2-oxazol-5-yl)-3-methylbutanoyl]-4-hydroxy-N-[(1S)-1-[4-(1-methyl-1H-pyrazol-5-yl)phenyl]ethyl]pyrrolidine-2-carboxamide]	–	> 1000	–	100 to 1000	–	–	–	–
